Data on 26 molecules can be found in patent US11078197B2, “5-membered and bicyclic heterocyclic amides as inhibitors of rock” (BRISTOL-MYERS SQUIBB COMPANY, priority 2017, dated 2021).

For orientation: IC50 means the point on the concentration scale where inhibition reaches its midpoint. Higher therefore signals lower potency.

Chain of ROCK2 (O75116 whole entry, species assumed): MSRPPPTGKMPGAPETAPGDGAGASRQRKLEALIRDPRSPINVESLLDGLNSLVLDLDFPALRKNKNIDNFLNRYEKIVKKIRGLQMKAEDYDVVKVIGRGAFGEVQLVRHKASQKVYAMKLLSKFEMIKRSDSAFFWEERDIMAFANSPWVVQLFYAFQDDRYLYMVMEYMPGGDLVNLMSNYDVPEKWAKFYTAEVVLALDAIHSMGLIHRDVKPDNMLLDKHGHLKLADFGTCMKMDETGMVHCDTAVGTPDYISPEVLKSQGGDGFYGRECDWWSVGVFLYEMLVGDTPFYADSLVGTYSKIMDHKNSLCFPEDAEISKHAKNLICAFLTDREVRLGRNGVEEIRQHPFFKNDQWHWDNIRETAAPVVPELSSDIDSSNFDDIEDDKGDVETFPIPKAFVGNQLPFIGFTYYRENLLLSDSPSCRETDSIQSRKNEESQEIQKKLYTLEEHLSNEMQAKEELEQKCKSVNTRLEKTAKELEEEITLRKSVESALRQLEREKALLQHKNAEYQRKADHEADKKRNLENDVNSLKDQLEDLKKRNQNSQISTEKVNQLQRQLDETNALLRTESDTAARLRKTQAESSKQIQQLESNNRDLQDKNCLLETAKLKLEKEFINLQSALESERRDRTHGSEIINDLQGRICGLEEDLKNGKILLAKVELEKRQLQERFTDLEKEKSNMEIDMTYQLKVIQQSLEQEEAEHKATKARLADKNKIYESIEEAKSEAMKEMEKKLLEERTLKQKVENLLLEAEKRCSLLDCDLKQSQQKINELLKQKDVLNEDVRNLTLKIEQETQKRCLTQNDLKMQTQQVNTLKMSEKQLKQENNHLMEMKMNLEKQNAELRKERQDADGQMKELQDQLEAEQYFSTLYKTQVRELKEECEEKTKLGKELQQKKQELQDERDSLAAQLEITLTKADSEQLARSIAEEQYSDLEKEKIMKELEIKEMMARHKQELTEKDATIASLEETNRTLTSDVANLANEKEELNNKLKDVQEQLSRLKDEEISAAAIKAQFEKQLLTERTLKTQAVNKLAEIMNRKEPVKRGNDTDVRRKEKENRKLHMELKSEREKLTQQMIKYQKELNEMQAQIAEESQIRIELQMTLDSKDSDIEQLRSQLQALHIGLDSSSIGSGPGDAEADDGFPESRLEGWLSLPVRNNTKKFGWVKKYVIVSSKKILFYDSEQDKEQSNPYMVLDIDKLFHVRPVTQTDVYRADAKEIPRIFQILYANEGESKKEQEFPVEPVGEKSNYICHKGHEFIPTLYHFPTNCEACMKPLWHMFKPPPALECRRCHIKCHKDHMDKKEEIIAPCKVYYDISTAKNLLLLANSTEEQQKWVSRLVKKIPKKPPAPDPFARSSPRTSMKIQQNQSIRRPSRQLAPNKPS

This assay deals with ROCK2 (Homo sapiens (Human), UniProt O75116). As to the kind of experiment: ROCK2 assay (peptide phosphorylation, LABCHIP 3000 Reader). The class given is biochemical. To be noted: 5 μM ATP, 1.5 μM peptide substrate, dose-response. As for the experimental part:
After incubation, the reaction was terminated by the addition of EDTA and the phosphorylated and non-phosphorylated peptides separated using a LABCHIP®3000 Reader (Caliper Life Sciences). […] Compounds were tested in dose-response format, and the inhibition of kinase activity was calculated at each concentration of compound. […] Representative Examples were tested in the ROCK2 assay described above and found having ROCK2 inhibitory activity.
`Cn1ncc2cc(C(N)=O)c(O[C@H]3C[C@@]4(C[C@H](NC(=O)c5cnc6ccc(F)cc6c5)C4)C3)nc21` (stereo partly drawn) [Example 103, 6-fluoro-N-[(aR)-6-({5-carbamoyl-1-methyl-1H-pyrazolo[3,4-b]pyridin-6-yl}oxy)spiro[3.3]heptan-2-yl]quinoline-3-carboxamide] yielded an IC50 of 5 nM. The result for `NC(=O)c1sc(C2CC2)nc1O[C@H]1CC2(C[C@H](NC(=O)c3cnn4cc(OCC(F)(F)F)ccc34)C2)C1` (stereo partly drawn) [Example 62, 2-cyclopropyl-4-{[(aR)-6-[6-(2,2,2-trifluoroethoxy)pyrazolo [1,5-a]pyridine-3-amido]spiro[3.3]heptan-2-yl]oxy}-1,3-thiazole-5-carboxamide] reads 11.6 nM; that for `CC(C)(O)COc1ccc2c(C(=O)NC3CC4(C3)CC(Oc3nc5c(cc3C(N)=O)COCC5)C4)cnn2c1` [Example 12, 6-(2-hydroxy-2-methylpropoxy)-N-[(aR)-6-({3-carbamoyl-5H,7H,8H-pyrano[4,3-b]pyridin-2-yl}oxy)spiro[3.3]heptan-2-yl]pyrazolo[1,5-a]pyridine-3-carboxamide], 40.1 nM. The result for `N#Cc1ccc(F)c(C(=O)N[C@H]2C[C@]3(C2)C[C@H](Oc2nc4c(cc2C(N)=O)COCC4)C3)c1` (stereo partly drawn) [Example 89, 2-{[(aR)-6-(5-cyano-2-fluorobenzamido)spiro[3.3]heptan-2-yl]oxy}-5H,7H,8H-pyrano[4,3-b]pyridine-3-carboxamide] reads 716 nM; that for `CC(C)CC1NC(=O)N([C@H]2C[C@@]3(C[C@H](Oc4nn(C5CC5)cc4C(N)=O)C3)C2)C1=O` (stereo partly drawn) [Example 105, 1-cyclopropyl-3-{[(aR)-6-[4-(2-methylpropyl)-2,5-dioxoimidazolidin-1-yl]spiro[3.3]heptan-2-yl]oxy}-1H-pyrazole-4-carboxamide], 132 nM; that for `Cc1c(C(=O)N[C@H]2C[C@]3(C2)C[C@H](Oc2nc4c(cnn4C)cc2C(N)=O)C3)cnn1-c1ccc(-c2cnn(CC(F)F)c2)cc1` (some centres unmarked) [Example 158, 1-{4-[1-(2,2-difluoroethyl)-1H-pyrazol-4-yl]phenyl}-5-methyl-N-[(4s)-6-({5-carbamoyl-1-methyl-1H-pyrazolo[3,4-b]pyridin-6-yl}oxy)spiro[3.3]heptan-2-yl]-1H-pyrazole-4-carboxamide], 4.6 nM. The result for `Cn1ncc2cc(C(N)=O)c(O[C@H]3C[C@@]4(C[C@H](NC(=O)c5cnc6c(cnn6CC(F)F)c5)C4)C3)nc21` (some centres unmarked) [Example 157, 1-methyl-6-{[(4s)-6-[1-(2,2-difluoroethyl)-1H-pyrazolo[3,4-b]pyridine-5-amido]spiro[3.3]heptan-2-yl]oxy}-1H-pyrazolo[3,4-b]pyridine-5-carboxamide] reads 10.9 nM. In the case of `CN1CCN(c2ccc3c(C(=O)N[C@H]4C[C@]5(C4)C[C@H](Oc4nn(C)cc4C(N)=O)C5)cnn3c2)CC1` (stereo partly drawn) [Example 35, 1-methyl-3-({(aR)-6-[6-(4-methylpiperazin-1-yl)pyrazolo[1,5-a]pyridine-3-amido]spiro[3.3]heptan-2-yl}oxy)-1H-pyrazole-4-carboxamide], the IC50 was found to be 202 nM.

On to `N#Cc1cccc(C(=O)NC2CC3(C2)CC(Oc2nc4ccsc4cc2C(N)=O)C3)c1` (centres unmarked) [Example 79, 5-{[6-(3-cyanobenzamido)spiro[3.3]heptan-2-yl]oxy}thieno[3,2-b]pyridine-6-carboxamide], for which the IC50 was determined as 22.2 nM. To `NC(=O)c1cc2c(nc1OC1CC3(CC(NC(=O)c4cnn5ccccc45)C3)C1)CCOC2` (centres unmarked) [Example 81, 2-[(6-{pyrazolo[1,5-a]pyridine-3-amido}spiro[3.3]heptan-2-yl)oxy]-5H,7H,8H-pyrano[4,3-b]pyridine-3-carboxamide] belongs 323 nM; to `NC(=O)c1cn(C2CC2)nc1O[C@H]1C[C@@]2(C[C@H](NC(=O)c3nc(C(F)(F)F)n4cc(-c5ccc(F)nc5)ccc34)C2)C1` (stereo partly drawn) [Example 59, 1-cyclopropyl-3-{[(aR)-6-[6-(6-fluoropyridin-3-yl)-3-(trifluoromethyl)imidazo[1,5-a]pyridine-1-amido]spiro[3.3]heptan-2-yl]oxy}-1H-pyrazole-4-carboxamide], 5.3 nM; to `Cc1c(C(=O)N[C@H]2C[C@]3(C2)C[C@H](Oc2nn(C4CC4)cc2C(N)=O)C3)cnn1-c1ccc(F)cc1F` (stereo partly drawn) [Example 66, 1-cyclopropyl-3-{[(aR)-6-[1-(2,4-difluorophenyl)-5-methyl-1H-pyrazole-4-amido]spiro[3.3]heptan-2-yl]oxy}-1H-pyrazole-4-carboxamide], 225 nM.

`Cc1sc2cc(C(N)=O)c(O[C@H]3C[C@@]4(C[C@H](NC(=O)c5cnc6ccc(F)cc6c5)C4)C3)nc2c1C` (stereo partly drawn) [Example 96, 6-fluoro-N-[(aR)-6-({6-carbamoyl-2,3-dimethylthieno[3,2-b]pyridin-5-yl}oxy)spiro[3.3]heptan-2-yl]quinoline-3-carboxamide] registered an IC50 of 126 nM. As to `Cn1ncc2cc(C(N)=O)c(O[C@H]3C[C@@]4(C[C@H](NC(=O)c5nnc(-c6cccc(S(C)(=O)=O)c6)s5)C4)C3)nc21` (some centres unmarked) [Example 156, 5-(3-methanesulfonylphenyl)-N-[(4s)-6-({5-carbamoyl-1-methyl-1H-pyrazolo[3,4-b]pyridin-6-yl}oxy)spiro[3.3]heptan-2-yl]-1,3,4-thiadiazole-2-carboxamide], the IC50 was 4.3 nM. The result for `COc1ccc(C(=O)N[C@H]2C[C@]3(C2)C[C@H](Oc2nc4c(cc2C(N)=O)COCC4)C3)cc1C#N` (stereo partly drawn) [Example 90, 2-{[(aR)-6-(3-cyano-4-methoxybenzamido)spiro[3.3]heptan-2-yl]oxy}-5H,7H,8H-pyrano[4,3-b]pyridine-3-carboxamide] reads 114 nM. The result for `Cc1sc2cc(C(N)=O)c(O[C@H]3C[C@@]4(C[C@H](NC(=O)c5cnn(-c6ccc(F)cc6F)c5C)C4)C3)nc2c1C` (some centres unmarked) [Example 161, 1-(2,4-difluorophenyl)-5-methyl-N-[(4s)-6-({6-carbamoyl-2,3-dimethylthieno[3,2-b]pyridin-5-yl}oxy)spiro[3.3]heptan-2-yl]-1H-pyrazole-4-carboxamide] reads 223 nM. `NC(=O)c1c(O[C@H]2C[C@@]3(C[C@H](NC(=O)c4cnn5cc(OCC(F)F)ccc45)C3)C2)nn2cc(C(F)(F)F)ccc12` (some centres unmarked) [Example 131, 2-{[(4s)-6-[6-(2,2-difluoroethoxy)pyrazolo[1,5-a]pyridine-3-amido]spiro[3.3]heptan-2-yl]oxy}-6-(trifluoromethyl)pyrazolo[1,5-a]pyridine-3-carboxamide] came in with an IC50 of 1170 nM.

`CC(C)(O)COc1ccc2c(C(=O)N[C@H]3C[C@]4(C3)C[C@H](Oc3nn(C5CC5)cc3C(N)=O)C4)cnn2c1C1CC1` (stereo partly drawn) [Example 69, 1-cyclopropyl-3-({(aR)-6-[7-cyclopropyl-6-(2-hydroxy-2-methylpropoxy)pyrazolo [1,5-a]pyridine-3-amido]spiro[3.3]heptan-2-yl}oxy)-1H-pyrazole-4-carboxamide] displayed an IC50 of 4.5 nM. In turn, `CC(C)(O)COc1ccc2c(C(=O)N[C@H]3C[C@]4(C3)C[C@H](Oc3nc(-c5ccccc5)sc3C(N)=O)C4)cnn2c1` (stereo partly drawn) [Example 17, 4-({(aR)-6-[6-(2-hydroxy-2-methylpropoxy)pyrazolo [1,5-a]pyridine-3-amido]spiro[3.3]heptan-2-yl}oxy)-2-phenyl-1,3-thiazole-5-carboxamide] yielded an IC50 of 18.5 nM. The molecule `CC(C)(O)COc1ccc2c(C(=O)N[C@H]3C[C@]4(C3)C[C@H](Oc3nn5ccccc5c3C(N)=O)C4)nn(C(F)F)c2c1` (some centres unmarked) [Example 121, 1-(difluoromethyl)-6-(2-hydroxy-2-methylpropoxy)-N-[(4s)-6-({3-carbamoylpyrazolo[1,5-a]pyridin-2-yl}oxy)spiro[3.3]heptan-2-yl]-1H-indazole-3-carboxamide] gave an IC50 of 18.3 nM. To `Cc1nc(O[C@H]2C[C@@]3(C[C@H](NC(=O)c4nn(C(F)F)c5cc(OCC(C)(C)O)ccc45)C3)C2)c(C(N)=O)s1` (stereo partly drawn) [Example 25, N-{(aR)-6-[(5-carbamoyl-2-methyl-1,3-thiazol-4-yl)oxy]spiro[3.3]heptan-2-yl}-1-(difluoromethyl)-6-(2-hydroxy-2-methylpropoxy)-1H-indazole-3-carboxamide] belongs 6.4 nM; to `Cc1nc(O[C@H]2C[C@@]3(C[C@H](NC(=O)c4cnn5c(C6CC6)c(OCC(C)(C)O)ccc45)C3)C2)c(C(N)=O)s1` (stereo partly drawn) [Example 22, 4-({(aR)-6-[7-cyclopropyl-6-(2-hydroxy-2-methylpropoxy)pyrazolo [1,5-a]pyridine-3-amido]spiro[3.3]heptan-2-yl}oxy)-2-methyl-1,3-thiazole-5-carboxamide], 7 nM.

In the case of `CC(C)C1NC(=O)N([C@H]2C[C@@]3(C[C@H](Oc4nc(C5CC5)sc4C(N)=O)C3)C2)C1=O` (stereo partly drawn) [Example 106, 2-cyclopropyl-4-{[(aR)-6-[2,5-dioxo-4-(propan-2-yl)imidazolidin-1-yl]spiro[3.3]heptan-2-yl]oxy}-1,3-thiazole-5-carboxamide], inhibition was half-maximal at 587 nM (IC50).

Consider `Cc1c(C(=O)N[C@H]2C[C@]3(C2)C[C@H](Oc2nn(C)cc2C(N)=O)C3)cnn1-c1ccc(Cl)cc1` (stereo partly drawn) [Example 47, 1-(4-chlorophenyl)-5-methyl-N-[(aR)-6-[(4-carbamoyl-1-methyl-1H-pyrazol-3-yl)oxy]spiro[3.3]heptan-2-yl]-1H-pyrazole-4-carboxamide], for which the IC50 was determined as 113 nM. For `Cc1cccc2c(C(N)=O)c(O[C@H]3C[C@@]4(C[C@H](NC(=O)c5nn(C(F)F)c6cc(OCC(C)(C)O)ccc56)C4)C3)nn12` (some centres unmarked) [Example 133, 1-(difluoromethyl)-6-(2-hydroxy-2-methylpropoxy)-N-[(4s)-6-({3-carbamoyl-7-methylpyrazolo[1,5-a]pyridin-2-yl}oxy)spiro[3.3]heptan-2-yl]-1H-indazole-3-carboxamide], the IC50 amounted to 20.2 nM.

Turning to `N#Cc1cccc(C(=O)N[C@H]2C[C@]3(C2)C[C@H](Oc2nc4c(cc2C(N)=O)COCC4)C3)c1` (stereo partly drawn) [Example 85, 2-{[(aR)-6-(3-cyanobenzamido)spiro[3.3]heptan-2-yl]oxy}-5H,7H,8H-pyrano[4,3-b]pyridine-3-carboxamide], half-maximal inhibition (IC50) required 144 nM.
